Assay [1] relates to primary hippocampal neurons. Put plainly: qPCR mRNA expression in primary hippocampal neurons treated with ketamine or HNKet. To be noted: 10 μM. In kind it is cell-based, mouse. The protocol: (§1) Primary hippocampal neurons were generated from E16.5 embryos using a standard primary neuron cell culture protocol previously described [K. G. Schraut et al., Eur JNeurosci (2021) 53: 390-401]. Briefly, dissected hippocampi were harvested in ice-cold dissection medium (HBSS, 7 mM HEPES, 2 mM L-glutamine, 500 U/ml penicillin-streptomycin, all Thermo Fisher Scientific). The tissue was incubated for 10 minutes in 0.25% Trypsin-EDTA with 8 mM HEPES (Thermo Fisher Scientific) in a water bath at 37° C. Tissue was washed three times with serum medium (DMEM, 10% FBS, Thermo Fisher Scientific). The cells were dissociated by titration using glass Pasteur pipets 10 in serum medium and filtered with a 70 tm cell strainer (Corning). Cell culture plates were coated overnight with 0.05 mg/ml poly-D-lysine mol wt 70,000-150,000 (Sigma Aldrich) in 0.15 M borate buffer (pH=8.5). Cells were seeded in 24-well plates at a density of 5×10^4 cells in 1 ml growth medium (Neurobasal A medium, 1 x B27 supplement, 0.25×GlutaMAX, all Thermo Fisher Scientific) per well. All cultures were kept in a humidified incubator at 37° C. and 5% CO2. Growth medium was renewed after 7 days of culture. For all experiments, mature twenty-one-day old primary neuronal cultures were used.
Primary hippocampal neurons were generated from E16.5 embryos and cultured for 21 days, as described above (see Primary Cell Culture). For experiment 1 (FIGS. 3A-K), neurons were treated with a saline solution, (R,S)-ketamine (10 μM) (Ketaset, Zoetis, Germany) or (2R,6R)-HNKet (10 μM) (Sigma, Cat #SML1873-25MG) for 0, 2, 12, 24 or 48 hours and compared to untreated controls. For experiment 2 (FIGS. 6A-D), neurons were stimulated with either a saline solution, (2R,6R)-HNKet (10 μM), or a combination of (2R,6R)-HNKet (10 μM) plus nifedipine (10 μM) (Tocris Bioscience, Cat #1075), W-7 hydrochloride (10 μM) (Tocris, Cat #0369), or cyclosporine-A (1 μM) (Tocris, Cat #1101) for 30 minutes, 1, 2, or 6 hours, and compared to untreated controls.
Ketamine treatment regulates Kcnq2 in primary hippocampal neurons To corroborate the previous findings in glutamatergic neurons, it was next examined whether treatment of primary hippocampal neurons with either (R,S)-ketamine or its active metabolite, (2R,6R)-hydroxynorketamine (HNKet), could modify the mRNA expression of the 8 genes tested earlier in glutamatergic neurons. Mouse primary hippocampal neurons are mostly made up of glutamatergic neurons and therefore make a very good model system to further validate the previous in vivo findings. […]
(Real-time PCR tracks product formation cycle by cycle.)

Assay [2] deals with KCNQ channel (KCNQ2/3, M-current). Description: In vitro whole-cell voltage-clamp recording of M-current (IM) density in primary hippocampal neurons. The format is cell-based, mouse. Conditions: HNKet 10 μM, 24 hours vs saline.
The subject of assay [3] is Kcnq2 mRNA in primary hippocampal neurons. Put plainly: Kcnq2 mRNA in primary hippocampal neurons stimulated with HNKet alone or plus nifedipine, W-7 or cyclosporine-A. In kind it is cell-based, mouse. The protocol:
as §1
Primary hippocampal neurons were generated from E16.5 embryos and cultured for 21 days, as described above (see Primary Cell Culture). For experiment 1 (FIGS. 3A-K), neurons were treated with a saline solution, (R,S)-ketamine (10 μM) (Ketaset, Zoetis, Germany) or (2R,6R)-HNKet (10 μM) (Sigma, Cat #SML1873-25MG) for 0, 2, 12, 24 or 48 hours and compared to untreated controls. For experiment 2 (FIGS. 6A-D), neurons were stimulated with either a saline solution, (2R,6R)-HNKet (10 μM), or a combination of (2R,6R)-HNKet (10 μM) plus nifedipine (10 μM) (Tocris Bioscience, Cat #1075), W-7 hydrochloride (10 μM) (Tocris, Cat #0369), or cyclosporine-A (1 μM) (Tocris, Cat #1101) for 30 minutes, 1, 2, or 6 hours, and compared to untreated controls. […]

For assay [4], the system named is mice (C57BL/6N). Description: Forced swim test (FST), pharmacological manipulation of KCNQ. To be noted: XE991 1 and 3 mg/kg BW in combination with saline (FIG. 23A). In kind it is in vivo, mouse. The protocol:
C57BL/6N and CD-1 (ICR) male mice aged 10 weeks old were used in these experiments. Ketamine hydrochloride (Ketaset, Zoetis, Germany) was diluted in 0.9% NaCl solution (saline) and administered i.p at 1, 5 or 10 mg/kg BW, depending on the experiment design. The KNCQ inhibitor, XE991 (Alomone labs; Cat #: X-100) was diluted in 5% DMSO and administered i.p at 1 or 3 mg/kg BW. The KCNQ activator, Retigabine (Alomone labs; Cat #: R-100), was diluted in 5% DMSO and administered i.p at 1 or 5 mg/kg BW. As control, mice were injected with a DMSO-saline solution (5% DMSO). For all experiments, mice were tested 30 minutes after injection in the FST or over a period of 36 hours after injection in the social boxes.
Previous studies in rodents have shown that KCNQ function can be regulated with highly-specific agonists and antagonists [V. Barrese et al., Annu Rev Pharmacol Toxicol (2018) 58: 625-648]. To further explore the KCNQ channel as a potential therapeutic target of ketamine, it was examined whether pharmacological inhibition of KCNQ alone or in combination with ketamine had any effects on behavior. To accomplish this, a new cohort of mice received two injections with a combination of drugs. […] To assess the effects of ketamine, XE991 (KCNQ inhibitor), and its combination, these mice were exposed to a FST (FIG. 7A, left). […] The inventors then sought to test whether the effects of ketamine could be mimicked, increased or amplified using retigabine, also known as ezogabine, a selective KCNQ (Kcnq2/3) channel activator. Similarly to the previous experiment, mice were treated with saline, (R,S)-ketamine (10 mg/kg BW), or ketamine in combination with two different concentrations of retigabine (1 and 5 mg/kg BW) (FIG. 7A, right).
Next, it was examined whether retigabine could increase the sustained antidepressant-like effects produced by a single injection of ketamine in mice. Accordingly, a new cohort of mice were treated with a single dose of saline, ketamine, or ketamine in combination with retigabine (1 mg/kg) and antidepressant-like behaviors were assessed using the FST, 5—and 7-days post-injection (FIG. 8A). […] Next, as a potential therapeutic strategy for major depressive disorder (MDD), the synergistic effects of ketamine and retigabine was further investigated by testing whether or not retigabine can increase the antidepressant-like effects produced by ketamine in mice. […] Next, it was tested whether retigabine can produce similar synergistic effects in combination with traditional antidepressants. […] Lastly, using a new cohort of Nex-Cre-Ai9 mice, it was tested whether the adjunctive treatment of ketamine with retigabine, or escitalopram alone, could modify the expression of Kcnq2 mRNA in FACS sorted cells from the vHipp (FIG. 8F).

The test system of assay [5] is Kcnq2 mRNA in glutamatergic neurons of the vHipp. Put plainly: qPCR mRNA levels in FACS-sorted glutamatergic neurons (Ai9+/tdTomato+) and remaining cells (Ai9-/tdTomato-) of Nex-Cre-Ai9 mice. To be noted: glutamatergic neurons (tdTomato+) of the vHipp, two days after treatment; ketamine 10, escitalopram 10, retigabine 1 mg/kg/BW. In kind it is in vivo, mouse. The text has this:
Conditional transgenic mice expressing tdTomato in glutamatergic neurons of the forebrain (Nex-Cre;Ai9) were generated by crossing homozygous Nex-Cre mice [described in S. Goebbels et al., Genesis (2006) 44: 611-621] with homozygous Ai9 mice [Gt(ROSA)26Sortm9(CAG-tdTomato)Hze] [described in L. Madisen et al., Nat Neurosci (2010) 13: 133-140].
In order to further investigate these findings, a conditional reporter mouse line (Nex-Cre-Ai9) was generated where most glutamatergic neurons of the forebrain, including the hippocampus, are fluorescently labeled by tdTomato (Ai9) except for neurons in the dentate gyrus where Neurod6, the promoter used to target glutamatergic neurons driving Cre expression, is not expressed (FIG. 12) [J. Hartmann et al., Mol Psychiatry (2017) 22: 466-475]. Following the same paradigm used in the original cohort, mice were group-housed and injected with (R,S)-ketamine (10 mg/kg BW) or a saline vehicle control. The vHipp of these mice was dissected […] later (i.e. 2 days). Single-cell suspensions were prepared and individual cells were sorted using fluorescence activated cell sorting (FACS) (FIG. 2A) into two separate pools of cells from each mouse. One pool contained glutamatergic neurons (Ai9+) and a second contained all remaining cell types of the vHipp (Ai9-) (FIG. 2A and FIGS. 13A-C). […] These two separate pools of cells were then used to validate the scRNA-seq findings in glutamatergic neurons at the population level using quantitative real-time polymerase chain reaction (qPCR).
Next, it was tested whether retigabine can produce similar synergistic effects in combination with traditional antidepressants.

This is an account of results in US20240065988A1, “COMBINED USE OF KETAMINE AND RETIGABINE (EZOGABINE) FOR THE TREATMENT OF PSYCHIATRIC DISORDERS” (Yeda Research and Development Co. Ltd., priority 2021, published 2024).

In the case of `N[C@@]1(c2ccccc2Cl)CCC[C@@H](O)C1=O` [HNKet, (2R,6R)-hydroxynorketamine], the “mRNA expression of Hspa8, Snap25, Hsp90ab1, Ndufa4, Ilf2, E2f1 and Kcnq2” value in assay [1] (2, 12, 24 or 48 hours) is “significant changes”. For the same molecule, the “Kcnq2 mRNA expression” value in assay [1] (2, 12, 24 or 48 hours vs untreated and saline controls) is listed as “significant upregulation at all time points tested”. Further, the IM current density result in assay [2] is on record as “significant increase in IM current density”. Besides, the “Kcnq2 mRNA” value in assay [3] (1, 2 and 6 hours of stimulation, HNKet 10 μM) is on record as “significant upregulation of Kcnq2 mRNA”. For the same molecule, in assay [3] (30 minutes of treatment, HNKet 10 μM), the “expression of Kcnq2” value was “No significant differences”.
Turning to `O=C1c2ccccc2C(Cc2ccncc2)(Cc2ccncc2)c2ccccc21` [XE991, 10,10-bis(4-pirinydilmethyl)-9(10H)−antracenone], the “immobility time during the FST” value in assay [4] was “No significant differences”.
For `CN(C)CCC[C@@]1(c2ccc(F)cc2)OCc2cc(C#N)ccc21` [escitalopram], the “Kcnq2 mRNA” value in assay [5] is listed as “No significant changes”.
As to `Cl.NCCCCCCNS(=O)(=O)c1cccc2c(Cl)cccc12` [W-7, W-7 hydrochloride], in assay [3] (combined with HNKet 10 μM, nifedipine 10 μM, W-7 10 μM, cyclosporine-A 1 μM, 1, 2, 6 hours), the “effect of inhibitor on the HNKet-induced upregulation of Kcnq2 mRNA” value was “eliminated the upregulation of Kcnq2”.
